Laboratory results taken from patent publication US8349826B2, “Oxazolidinone derivatives” (Actelion Pharmaceuticals Ltd., priority 2008, dated 2013).
≈ marks a conversion by molar mass, not a printed value.

Tested on: Moraxella catarrhalis A894
Experiment: MIC by broth microdilution (cation-adjusted Mueller-Hinton Broth, CLSI M7-A7)
Type: cell-based
Protocol: Minimal inhibitory concentrations (MICS; mg/l) were determined in cation-adjusted Mueller-Hinton Broth by a microdilution procedure following the description given in “Procedures for Dilution Antimicrobial Susceptibility Tests for Bacteria that Grow Aerobically”, Approved standard, 7th ed., Clinical and Laboratory Standards Institute (CLSI) Document M7-A7, Wayne, Pa., USA, 2006. All Example compounds were tested against several Gram positive and Gram negative bacteria such as S. aureus, E. faecalis, S. pneumoniae, M. catarrhalis, A. baumanii, E. coli or P. aeruginosa.

Compound | MIC [µg/mL] | MIC Moraxella catarrhalis A894
COc1ccc2ccc(=O)n(C[C@H](O)CNC[C@@H]3CN(c4ccc5c(c4)NC(=O)CO5)C(=O)O3)c2c1.Cl [Example 13, 6-((R)-5-{[(R)-2-hydroxy-3-(7-methoxy-2-oxo-2H-quinolin-1-yl)-propylamino]-methyl}-2-oxo-oxazolidin-3-yl)-4H-benzo[1,4]oxazin-3-one hydrochloride] | ≤ 0.031 | –
COc1ccc2ncc(=O)n(CCC(=O)NC[C@@H]3CN(c4ccc5c(c4)OCCO5)C(=O)O3)c2c1 [Example 10, N-[(R)-3-(2,3-dihydro-benzo[1,4]dioxin-6-yl)-2-oxo-oxazolidin-5-ylmethyl]-3-(7-methoxy-2-oxo-2H-quinoxalin-1-yl)-propionamide] | 0.125 (≈ 0.26 µM) | –
COc1ccc2ncc(=O)n(CCCNC[C@@H]3CN(c4ccc5c(c4)NC(=O)CS5)C(=O)O3)c2n1 [Example 17, 6-methoxy-4-(3-{[(R)-2-oxo-3-(3-oxo-3,4-dihydro-2H-benzo[1,4]thiazin-6-yl)-oxazolidin-5-ylmethyl]-amino}-propyl)-4H-pyrido[2,3-b]pyrazin-3-one] | ≤ 0.031 | –
COc1ccc2ncc(=O)n(C[C@H](O)CNC[C@@H]3CN(c4ccc5c(c4)NC(=O)CO5)C(=O)O3)c2n1 [Example 27] | – | <=0.031 mg/l
COc1ccc2c(c1)N(CCCNC[C@@H]1CN(c3ccc4c(c3)OCCO4)C(=O)O1)C(=O)CC2 [Example 28, 1-(3-{[(R)-3-(2,3-dihydro-benzo[1,4]dioxin-6-yl)-2-oxo-oxazolidin-5-ylmethyl]-amino}-propyl)-7-methoxy-3,4-dihydro-1H-quinolin-2-one] | 1 (≈ 2.14 µM) | –
COc1ccc2ncc(=O)n(C[C@H](O)CNC[C@@H]3CN(c4ccc5c(c4)NC(=O)CS5)C(=O)O3)c2n1 [Example 25, 4-((R)-2-hydroxy-3-{[(R)-2-oxo-3-(3-oxo-3,4-dihydro-2H-benzo[1,4]thiazin-6-yl)-oxazolidin-5-ylmethyl]-amino}-propyl)-6-methoxy-4H-pyrido[2,3-b]pyrazin-3-one] | ≤ 0.031 | –
CCOc1ccc(N2C[C@@H](CCN3CC(n4c(=O)cnc5ccc(OC)nc54)C3)OC2=O)cc1 [Example 34, 4-(1-{2-[(R)-3-(4-ethoxy-phenyl)-2-oxo-oxazolidin-5-yl]-ethyl}-azetidin-3-yl)-6-methoxy-4H-pyrido[2,3-b]pyrazin-3-one] | 8 (≈ 17.2 µM) | –
COc1ccc2ccc(=O)n(CCC(=O)NC[C@@H]3CN(c4ccc5c(c4)NC(=O)CS5)C(=O)O3)c2c1 [Example 11, 3-(7-methoxy-2-oxo-2H-quinolin-1-yl)-N-[(R)-2-oxo-3-(3-oxo-3,4-dihydro-2H-benzo[1,4]thiazin-6-yl)-oxazolidin-5-ylmethyl]-propionamide] | ≤ 0.031 | –
COc1ccc2ncc(=O)n(C3CN(C[C@@H]4CN(c5ccc6c(c5)NC(=O)CS6)C(=O)O4)C3)c2n1 [Example 30, 6-methoxy-4-{1-[(R)-2-oxo-3-(3-oxo-3,4-dihydro-2H-benzo[1,4]thiazin-6-yl)-oxazolidin-5-ylmethyl]-azetidin-3-yl}-4H-pyrido[2,3-b]pyrazin-3-one] | ≤ 0.016 | –
COc1ccc2ncc(=O)n(C3CN(CCC[C@@H]4CN(c5ccc6c(c5)NC(=O)CS6)C(=O)O4)C3)c2n1 [Example 23, 6-methoxy-4-(1-{3-[(R)-2-oxo-3-(3-oxo-3,4-dihydro-2H-benzo[1,4]thiazin-6-yl)-oxazolidin-5-yl]-propyl}-azetidin-3-yl)-4H-pyrido[2,3-b]pyrazin-3-one] | ≤ 0.031 | –
COc1ccc2ncc(=O)n(C3CN(CC[C@H]4CN(c5ccc6c(c5)NC(=O)CS6)C(=O)O4)C3)c2n1 [Example 24, 6-methoxy-4-(1-{2-[(S)-2-oxo-3-(3-oxo-3,4-dihydro-2H-benzo[1,4]thiazin-6-yl)-oxazolidin-5-yl]-ethyl}-azetidin-3-yl)-4H-pyrido[2,3-b]pyrazin-3-one] | ≤ 0.031 | –
rac-4-(2-{2-[3-(2,3-dihydro-[1,4]dioxino[2,3-b]pyridin-6-yl)-2-oxo-oxazolidin-5-yl]-ethylamino}-ethyl)-6-methoxy-4H-pyrido[2,3-b]pyrazin-3-one [Example 32] | – | 1 µg/mL
O=C1CSc2ccc(N3C[C@@H](CNCCCn4c(=O)ccc5ccc(Br)cc54)OC3=O)cc2N1 [Example 2] | – | <=0.031 mg/l
COc1ccc2ccc(=O)n(CCC(=O)NC[C@@H]3CN(c4ccc5c(c4)OCCO5)C(=O)O3)c2c1 [Example 7, N-[(R)-3-(2,3-dihydro-benzo[1,4]dioxin-6-yl)-2-oxo-oxazolidin-5-ylmethyl]-3-(7-methoxy-2-oxo-2H-quinolin-1-yl)-propionamide] | 0.5 (≈ 1.04 µM) | –
O=C(CCn1c(=O)ccc2ccc(Br)cc21)NC[C@@H]1CN(c2ccc3c(c2)OCCO3)C(=O)O1 [Example 8, 3-(7-bromo-2-oxo-2H-quinolin-1-yl)-N-[(R)-3-(2,3-dihydro-benzo[1,4]dioxin-6-yl)-2-oxo-oxazolidin-5-ylmethyl]-propionamide] | 0.25 (≈ 0.473 µM) | –
COc1ccc2ncc(=O)n(CCNCC[C@@H]3CN(c4ccc5c(c4)NC(=O)CS5)C(=O)O3)c2n1 [Example 20, 6-methoxy-4-(2-{2-[(R)-2-oxo-3-(3-oxo-3,4-dihydro-2H-benzo[1,4]thiazin-6-yl)-oxazolidin-5-yl]-ethylamino}-ethyl)-4H-pyrido[2,3-b]pyrazin-3-one] | ≤ 0.031 | –
COc1ccc2ccc(=O)n(C[C@@H](O)CNC[C@@H]3CN(c4cc5c(cc4F)SCC(=O)N5)C(=O)O3)c2c1 [Example 16, 7-fluoro-6-((R)-5-{[(S)-2-hydroxy-3-(7-methoxy-2-oxo-2H-quinolin-1-yl)-propylamino]-methyl}-2-oxo-oxazolidin-3-yl)-4H-benzo[1,4]thiazin-3-one] | ≤ 0.031 | –
COc1ccc2ccc(=O)n(C3CN(CCC4CN(c5ccc6c(c5)NC(=O)CS6)C(=O)O4)C3)c2c1 (racemic) [Example 5, (RS)-6-(5-{2-[3-(7-methoxy-2-oxo-2H-quinolin-1-yl)-azetidin-1-yl]-ethyl}-2-oxo-oxazolidin-3-yl)-4H-benzo[1,4]thiazin-3-one] | 0.25 (≈ 0.494 µM) | –
COc1ccc2ccc(=O)n(CCCNC[C@@H]3CN(c4ccc5c(c4)NC(=O)CS5)C(=O)O3)c2c1 [Example 1, 6-((R)-5-{[3-(7-methoxy-2-oxo-2H-quinolin-1-yl)-propylamino]-methyl}-2-oxo-oxazolidin-3-yl)-4H-benzo[1,4]thiazin-3-one] | ≤ 0.031 | –
COc1ccc2ncc(=O)n(CCCNC[C@@H]3CN(c4ccc(C)c(F)c4)C(=O)O3)c2n1 [Example 29, 4-(3-{[(R)-3-(3-fluoro-4-methyl-phenyl)-2-oxo-oxazolidin-5-ylmethyl]-amino}-propyl)-6-methoxy-4H-pyrido[2,3-b]pyrazin-3-one] | 0.063 (≈ 0.143 µM) | –
COc1ccc2ncc(=O)n(CCNCCC3CN(c4ccc5c(n4)NC(=O)CO5)C(=O)O3)c2n1 (racemic) [Example 33, rac-6-(5-{2-[2-(6-methoxy-3-oxo-3H-pyrido[2,3-b]pyrazin-4-yl)-ethylamino]-ethyl}-2-oxo-oxazolidin-3-yl)-4H-pyrido[3,2-b][1,4]oxazin-3-one] | ≤ 0.031 | –
COc1ccc2ccc(=O)n(C[C@H](O)CNC[C@@H]3CN(c4ccc5c(c4)NC(=O)CS5)C(=O)O3)c2c1.Cl [Example 14, 6-((R)-5-{[(R)-2-hydroxy-3-(7-methoxy-2-oxo-2H-quinolin-1-yl)-propylamino]-methyl}-2-oxo-oxazolidin-3-yl)-4H-benzo[1,4]thiazin-3-one hydrochloride] | ≤ 0.031 | –
COc1ccc2nc(C)c(=O)n(CCCNC[C@@H]3CN(c4ccc5c(c4)NC(=O)CS5)C(=O)O3)c2n1 [Example 35, 6-methoxy-2-methyl-4-(3-{[(R)-2-oxo-3-(3-oxo-3,4-dihydro-2H-benzo[1,4]thiazin-6-yl)-oxazolidin-5-ylmethyl]-amino}-propyl)-4H-pyrido[2,3-b]pyrazin-3-one] | ≤ 0.016 | –
COc1ccc2ncc(=O)n(CCC(=O)NC[C@@H]3CN(c4ccc5c(c4)NC(=O)CS5)C(=O)O3)c2c1 [Example 6, 3-(7-methoxy-2-oxo-2H-quinoxalin-1-yl)-N-[(R)-2-oxo-3-(3-oxo-3,4-dihydro-2H-benzo[1,4]thiazin-6-yl)-oxazolidin-5-ylmethyl]-propionamide] | ≤ 0.031 | –
COc1ccc2ccc(=O)n(C[C@@H](O)CNC[C@@H]3CN(c4ccc5c(c4)NC(=O)CS5)C(=O)O3)c2c1 [Example 15, 6-((R)-5-{[(S)-2-hydroxy-3-(7-methoxy-2-oxo-2H-quinolin-1-yl)-propylamino]-methyl}-2-oxo-oxazolidin-3-yl)-4H-benzo[1,4]thiazin-3-one] | ≤ 0.031 | –
COc1ccc2ncc(=O)n(C3CN(CC[C@@H]4CN(c5ccc6c(c5)NC(=O)CS6)C(=O)O4)C3)c2n1 [Example 22, 6-methoxy-4-(1-{2-[(R)-2-oxo-3-(3-oxo-3,4-dihydro-2H-benzo[1,4]thiazin-6-yl)-oxazolidin-5-yl]-ethyl}-azetidin-3-yl)-4H-pyrido[2,3-b]pyrazin-3-one] | ≤ 0.031 | –
O=C1O[C@H](CNCCCn2c(=O)ccc3ccc(Br)cc32)CN1c1ccc2c(c1)OCCO2 [Example 4, 7-bromo-1-(3-{[(R)-3-(2,3-dihydro-benzo[1,4]dioxin-6-yl)-2-oxo-oxazolidin-5-ylmethyl]-amino}-propyl)-1H-quinolin-2-one] | ≤ 0.031 | –
COc1ccc2ncc(=O)n(CC(N)C(=O)NC[C@@H]3CN(c4ccc5c(c4)OCCO5)C(=O)O3)c2c1 (mixture of isomers) [Example 12, (RS)-2-amino-N-[(R)-3-(2,3-dihydro-benzo[1,4]dioxin-6-yl)-2-oxo-oxazolidin-5-ylmethyl]-3-(7-methoxy-2-oxo-2H-quinoxalin-1-yl)-propionamide] | 1 | –
COc1ccc2ncc(=O)n(C[C@H](O)CNC[C@@H]3CN(c4ccc5c(c4)OCCO5)C(=O)O3)c2n1 [Example 26, 4-((R)-3-{[(R)-3-(2,3-dihydro-benzo[1,4]dioxin-6-yl)-2-oxo-oxazolidin-5-ylmethyl]-amino}-2-hydroxy-propyl)-6-methoxy-4H-pyrido[2,3-b]pyrazin-3-one] | 0.25 (≈ 0.517 µM) | –
